In brackets after ≈: the same amount, converted by molar mass.
Experiments:
[1] = system: Mycobacterium tuberculosis H37Ra; test: microbe, parasite or virus in culture; format: cell-based
[2] = Cytotoxicity against VERO cells; format: cell-based; conditions: African green monkey, VERO cells (kidney epithelial cells)
physchem = conditions: 37 °C, water, thermodynamic from solid
in vitro [3] = conditions: human, microsomes, pH 7.5
in vitro [4] = conditions: rat, microsomes, pH 7.5
in vitro [5] = conditions: mouse, microsomes, pH 7.5
in vitro [6] = conditions: dog; for Papp A→B: MDCK-MDR1, pH 7.4, Mean Papp A to B, A to B
CYP2C19 = CYP2C19 (Homo sapiens, UniProt P33261); test: biochemical; conditions: CYP inhibitory IC50, 2C19
CYP3A4 = CYP3A4 (Homo sapiens, UniProt P08684); test: biochemical
[7] = Pharmacokinetic study in ICR mice; format: in vivo; conditions: mouse

CYP3A4, sequence (P08684 whole entry): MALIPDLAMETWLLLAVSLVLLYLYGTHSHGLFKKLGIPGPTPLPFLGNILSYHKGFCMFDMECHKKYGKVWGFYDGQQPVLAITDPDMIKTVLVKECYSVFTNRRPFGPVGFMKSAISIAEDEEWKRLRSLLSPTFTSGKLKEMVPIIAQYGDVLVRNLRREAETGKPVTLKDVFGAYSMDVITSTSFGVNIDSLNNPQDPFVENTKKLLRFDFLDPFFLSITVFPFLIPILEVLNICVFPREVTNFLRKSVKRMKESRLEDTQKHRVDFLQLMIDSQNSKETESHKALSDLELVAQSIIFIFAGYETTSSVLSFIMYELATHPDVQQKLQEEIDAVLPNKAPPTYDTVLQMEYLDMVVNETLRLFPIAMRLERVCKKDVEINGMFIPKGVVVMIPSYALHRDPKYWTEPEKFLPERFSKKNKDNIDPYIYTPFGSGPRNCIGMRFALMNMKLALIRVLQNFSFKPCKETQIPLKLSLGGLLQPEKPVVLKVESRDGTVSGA
CYP2C19, sequence (P33261 whole entry): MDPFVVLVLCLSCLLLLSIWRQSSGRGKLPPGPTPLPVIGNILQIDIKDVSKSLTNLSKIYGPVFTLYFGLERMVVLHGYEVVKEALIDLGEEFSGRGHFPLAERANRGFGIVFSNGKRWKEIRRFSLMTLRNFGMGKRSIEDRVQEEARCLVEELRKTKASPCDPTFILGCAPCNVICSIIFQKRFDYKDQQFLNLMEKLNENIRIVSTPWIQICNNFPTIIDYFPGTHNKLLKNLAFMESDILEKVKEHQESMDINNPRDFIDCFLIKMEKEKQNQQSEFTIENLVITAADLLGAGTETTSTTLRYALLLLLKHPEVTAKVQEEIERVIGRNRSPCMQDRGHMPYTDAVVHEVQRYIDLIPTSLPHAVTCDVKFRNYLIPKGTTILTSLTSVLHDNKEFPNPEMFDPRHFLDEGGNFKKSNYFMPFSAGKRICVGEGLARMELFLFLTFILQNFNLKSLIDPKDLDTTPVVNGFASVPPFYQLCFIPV

SMILES: O=c1nc(N2CCC(Oc3ccccn3)CC2)sc2c([N+](=O)[O-])cc(C(F)(F)F)cc12 [Compound 3k, 8-Nitro-2-(4-(pyridin-2-yloxy)piperidin-1-yl)-6-(trifluoro-methyl)-4H-benzo[e][1,3]thiazin-4-one]
- MIC [1]: 0.031 µM (≈ 14 ng/mL)
- CC50 [2]: > 10 µM

SMILES: O=C1CN(c2nc(=O)c3cc(C(F)(F)F)cc([N+](=O)[O-])c3s2)CCN1C1CCCC1 [Compound 1a, 2-(4-Cyclopentyl-3-oxopiperazin-1-yl)-8-nitro-6(trifluoromethyl)-4H-benzo[e]-[1,3]thiazin-4-one]
- MIC [1]: 0.013 µM (≈ 5.75 ng/mL)
- CC50 [2]: > 10 µM
- solubility (physchem): 7.37 µg/mL (≈ 16.7 µM)
- half-life (in vitro [3]): 72 min
- half-life (in vitro [4]): 15.6 min
- half-life (in vitro [5]): 9.4 min
- Papp B→A (in vitro [6]; MDCK-MDR1, pH 7.4): 7.23 ×10⁻⁶ cm/s
- efflux ratio (in vitro [6]; MDCK-MDR1, pH 7.4): 0.68
- Papp A→B (in vitro [6]): 10.6 ×10⁻⁶ cm/s
- IC50 (CYP2C19): 8.6 µM
- IC50 (CYP3A4): 5.33 µM

SMILES: O=C(OC1CCN(c2nc(=O)c3cc(C(F)(F)F)cc([N+](=O)[O-])c3s2)CC1)c1ccc(C(F)(F)F)cc1 [Compound 2k, 1-(8-Nitro-4-oxo-6-(trifluoromethyl)-4H-benzo[e][1,3]thiazin-2-yl)piperidin-4-yl 4-(trifluoromethyl)benzoate]
- MIC [1]: 0.008 µM (≈ 4.38 ng/mL)
- CC50 [2]: > 10 µM

SMILES: CCCCN1CCN(c2nc(=O)c3cc(C(F)(F)F)cc([N+](=O)[O-])c3s2)CC1=O [Compound 1d, 2-(4-Butyl-3-oxopiperazin-1-yl)-8-nitro-6-(trifluoromethyl)-4H-benzo[e][1,3]-thiazin-4-one]
- CC50 [2]: > 10 µM

SMILES: CCOC(=O)CC1CCN(c2nc(=O)c3cc(C(F)(F)F)cc([N+](=O)[O-])c3s2)CC1 [Compound 2c, Ethyl 2-(1-(8-nitro-4-oxo-6-(trifluoromethyl)-4H-benzo[e][1,3]thiazin-2-yl)-piperidin-4-yl)acetate]
- MIC [1]: 0.016 µM (≈ 7.13 ng/mL)
- CC50 [2]: > 10 µM

SMILES: COc1ccc(C(=O)OC2CCN(c3nc(=O)c4cc(C(F)(F)F)cc([N+](=O)[O-])c4s3)CC2)cc1 [Compound 2l, 1-(8-Nitro-4-oxo-6-(trifluoromethyl)-4H-benzo[e][1,3]thiazin-2-yl)piperidin-4-yl 4-methoxybenzoat]
- MIC [1]: 0.008 µM (≈ 4.08 ng/mL)
- CC50 [2]: > 10 µM

SMILES: O=C(OC1CCN(c2nc(=O)c3cc(C(F)(F)F)cc([N+](=O)[O-])c3s2)CC1)c1ccccc1F [Compound 2i, 1-(8-Nitro-4-oxo-6-(trifluoromethyl)-4H-benzo[e][1,3]thiazin-2-yl)piperidin-4-yl 2-fluorobenzoate]
- MIC [1]: ≤ 0.002 µM
- CC50 [2]: > 10 µM

SMILES: COC(=O)c1ccc(C(=O)OC2CCN(c3nc(=O)c4cc(C(F)(F)F)cc([N+](=O)[O-])c4s3)CC2)cc1 [Compound 2n, Methyl (1-(8-nitro-4-oxo-6-(trifluoromethyl)-4H-benzo[e][1,3]thiazin-2-yl)-piperidin-4-yl) terephthalate]
- MIC [1]: 0.063 µM (≈ 33.9 ng/mL)
- CC50 [2]: > 10 µM

SMILES: COc1ccccc1C(=O)OC1CCN(c2nc(=O)c3cc(C(F)(F)F)cc([N+](=O)[O-])c3s2)CC1 [Compound 2m, 1-(8-Nitro-4-oxo-6-(trifluoromethyl)-4H-benzo[e][1,3]thiazin-2-yl)piperidin-4-yl 2-methoxybenzoate]
- MIC [1]: 0.063 µM (≈ 32.1 ng/mL)
- CC50 [2]: > 10 µM

SMILES: CN(C)c1ccc(C(=O)OC2CCN(c3nc(=O)c4cc(C(F)(F)F)cc([N+](=O)[O-])c4s3)CC2)cc1 [Compound 2o, 1-(8-Nitro-4-oxo-6-(trifluoromethyl)-4H-benzo[e][1,3]thiazin-2-yl)piperidin-4-yl 4-(dimethylamino)benzoate]
- MIC [1]: 0.031 µM (≈ 16.2 ng/mL)
- CC50 [2]: > 10 µM

SMILES: O=c1nc(N2CCN(CC3CCCCC3)CC2)sc2c([N+](=O)[O-])cc(C(F)(F)F)cc12 [PBTZ169]
- Cmax ([7]; lung, iv, 10 mg/kg): 4210 ng/mL
- MRT inf ([7]; lung, iv, 10 mg/kg): 4.5 h
- Tmax ([7]; lung, iv, 10 mg/kg): 4.8 min
- half-life ([7]; lung, iv, 10 mg/kg): 190 min
- AUC(0-inf) ([7]; lung, po, 100 mg/kg): 7840 ng·h/mL
- Cmax ([7]; lung, po, 100 mg/kg): 811 ng/mL
- MRT inf ([7]; lung, po, 100 mg/kg): 6.5 h
- Tmax ([7]; lung, po, 100 mg/kg): 30 min
- half-life ([7]; lung, po, 100 mg/kg): 254 min
- AUC(0-inf) ([7]; plasma, iv, 10 mg/kg): 9070 ng·h/mL
- MRT inf ([7]; plasma, iv, 10 mg/kg): 1.05 h
- Tmax ([7]; plasma, iv, 10 mg/kg): 4.8 min
- Vd ([7]; plasma, iv, 10 mg/kg): 1.15 L/kg
- clearance ([7]; plasma, iv, 10 mg/kg): 18.3 mL/min/kg
- half-life ([7]; plasma, iv, 10 mg/kg): 160 min
- Cmax ([7]; plasma, po, 100 mg/kg): 3000 ng/mL
- MRT inf ([7]; plasma, po, 100 mg/kg): 3.7 h
- Tmax ([7]; plasma, po, 100 mg/kg): 120 min
- bioavailability ([7]; plasma, po, 100 mg/kg): 20.8%
- half-life ([7]; plasma, po, 100 mg/kg): 125 min
- half-life (in vitro [3]): 11.1 min
- half-life (in vitro [4]): 14.7 min
- half-life (in vitro [5]): 14.4 min
- Papp B→A (in vitro [6]; MDCK-MDR1, pH 7.4): 0.74 ×10⁻⁶ cm/s
- Papp A→B (in vitro [6]): 0.74 ×10⁻⁶ cm/s

SMILES: O=C1CN(c2nc(=O)c3cc(C(F)(F)F)cc([N+](=O)[O-])c3s2)CCN1CC1CCCCC1 [Compound 1c, 2-(4-(Cyclohexylmethyl)-3-oxopiperazin-1-yl)-8-nitro-6-(trifluoromethyl)-4H-benzo-[e][1,3]thiazin-4-one]
- MIC [1]: 0.017 µM (≈ 8 ng/mL)
- CC50 [2]: > 10 µM
- solubility (physchem): 3.57 µg/mL (≈ 7.59 µM)

SMILES: O=C(OC1CCN(c2nc(=O)c3cc(C(F)(F)F)cc([N+](=O)[O-])c3s2)CC1)c1ccc(F)cc1 [Compound 2h, 1-(8-Nitro-4-oxo-6-(trifluoromethyl)-4H-benzo[e][1,3]thiazin-2-yl)piperidin-4-yl 4-fluorobenzoate]
- MIC [1]: ≤ 0.002 µM

SMILES: O=C1CN(c2nc(=O)c3cc(C(F)(F)F)cc([N+](=O)[O-])c3s2)CCN1C1CCCCC1 [Compound 1b, 2-(4-Cyclohexyl-3-oxopiperazin-1-yl)-8-nitro-6-(trifluoromethyl)-4H-benzo[e]-[1,3]thiazin-4-one]
- MIC [1]: 0.017 µM (≈ 7.76 ng/mL)
- CC50 [2]: > 10 µM
- solubility (physchem): 1.63 µg/mL (≈ 3.57 µM)

SMILES: CCOC(=O)CN1CCN(c2nc(=O)c3cc(C(F)(F)F)cc([N+](=O)[O-])c3s2)CC1 [Compound 2b, Ethyl 2-(4-(8-nitro-4-oxo-6-(trifluoromethyl)-4H-benzo[e][1,3]thiazin-2-yl)-piperazin-1-yl)acetate]
- MIC [1]: 0.02 µM (≈ 8.93 ng/mL)
- CC50 [2]: > 10 µM

SMILES: Cc1ccnc(OC2CCN(c3nc(=O)c4cc(C(F)(F)F)cc([N+](=O)[O-])c4s3)CC2)n1 [Compound 3m, 2-(4-((4-Methylpyrimidin-2-yl)oxy)piperidin-1-yl)-8-nitro-6-(trifluoromethyl)-4H-benzo[e][1,3]thiazin-4-one]
- MIC [1]: 0.031 µM (≈ 14.5 ng/mL)
- CC50 [2]: > 10 µM
- solubility (physchem): 2.39 µg/mL (≈ 5.11 µM)

SMILES: O=C(OC1CCN(c2nc(=O)c3cc(C(F)(F)F)cc([N+](=O)[O-])c3s2)CC1)c1ccccc1Cl [Compound 2j, 1-(8-Nitro-4-oxo-6-(trifluoromethyl)-4H-benzo[e][1,3]thiazin-2-yl)piperidin-4-yl 2-chlorobenzoate]
- MIC [1]: 0.008 µM (≈ 4.11 ng/mL)
- CC50 [2]: > 10 µM

SMILES: CCCC1CC(N2CCN(c3nc(=O)c4cc(C(F)(F)F)cc([N+](=O)[O-])c4s3)CC2)C(=O)O1 (stereo not shown) [Compound 2g, 8-Nitro-2-(4-(2-oxo-5-propyltetrahydrofuran-3-yl)piperazin-1-yl)-6-(trifluoromethyl)-4H-benzo[e][1,3]thiazin-4-one]
- MIC [1]: 0.016 µM (≈ 7.78 ng/mL)
- CC50 [2]: > 10 µM

SMILES: Cc1ccc(OC2CCN(c3nc(=O)c4cc(C(F)(F)F)cc([N+](=O)[O-])c4s3)CC2)c(F)c1 [Compound 3i, 2-(4-(2-Fluoro-4-methylphenoxy)piperidin-1-yl)-8-nitro-6-(tri-fluoromethyl)-4H-benzo[e][1,3]thiazin-4-one]
- MIC [1]: 0.016 µM (≈ 7.74 ng/mL)
- CC50 [2]: > 10 µM
- solubility (physchem): 1 µg/mL (≈ 2.07 µM)

SMILES: CCOC(=O)C(C)N1CCN(c2nc(=O)c3cc(C(F)(F)F)cc([N+](=O)[O-])c3s2)CC1 (stereo not shown) [Compound 2d, Ethyl 2-(4-(8-nitro-4-oxo-6-(trifluoromethyl)-4H-benzo[e][1,3]thiazin-2-yl)-piperazin-1-yl)propanoate]
- MIC [1]: 0.008 µM (≈ 3.68 ng/mL)

SMILES: O=c1nc(N2CCC(Oc3ccc(OC(F)(F)F)cc3)CC2)sc2c([N+](=O)[O-])cc(C(F)(F)F)cc12 [Compound 3h, 8-Nitro-2-(4-(4-(trifluoromethoxy)phenoxy)piperidin-1-yl)-6-(trifluoromethyl)-4H-benzo[e][1,3]thiazin-4-one]
- MIC [1]: 0.008 µM (≈ 4.28 ng/mL)
- CC50 [2]: > 10 µM

SMILES: O=c1nc(N2CCC(Oc3nccc(C(F)(F)F)n3)CC2)sc2c([N+](=O)[O-])cc(C(F)(F)F)cc12 [Compound 3n, 8-Nitro-6-(trifluoromethyl)-2-(4-((4-(trifluoromethyl)pyrimidin-2-yl)oxy)piperidin-1-yl)-4H-benzo[e][1,3]thiazin-4-one]
- MIC [1]: 0.004 µM (≈ 2.09 ng/mL)

SMILES: Cc1ccccc1OC1CCN(c2nc(=O)c3cc(C(F)(F)F)cc([N+](=O)[O-])c3s2)CC1 [Compound 3g, 8-Nitro-2-(4-(o-tolyloxy)piperidin-1-yl)-6-(trifluoromethyl)-4H-benzo[e][1,3]thiazin-4-one]
- MIC [1]: 0.016 µM (≈ 7.45 ng/mL)
- CC50 [2]: > 10 µM

SMILES: O=c1nc(N2CCC(Oc3ccc(F)cn3)CC2)sc2c([N+](=O)[O-])cc(C(F)(F)F)cc12 [Compound 3l, 2-(4-((5-Fluoropyridin-2-yl)oxy)piperidin-1-yl)-8-nitro-6-(tri-fluoromethyl)-4H-benzo[e][1,3]thiazin-4-one]
- MIC [1]: 0.031 µM (≈ 14.6 ng/mL)
- CC50 [2]: > 10 µM

SMILES: O=c1nc(N2CCC(Oc3ccc(F)cc3)CC2)sc2c([N+](=O)[O-])cc(C(F)(F)F)cc12 [Compound 3b, 2-(4-(4-Fluorophenoxy)piperidin-1-yl)-8-nitro-6-(trifluoro-methyl)-4H-benzo[e][1,3]-thiazin-4-one]
- MIC [1]: 0.004 µM (≈ 1.88 ng/mL)

SMILES: CCOC(=O)C1CCN(c2nc(=O)c3cc(C(F)(F)F)cc([N+](=O)[O-])c3s2)CC1 [Compound 2a, Ethyl 1-(8-nitro-4-oxo-6-(trifluoromethyl)-4H-benzo[e][1,3]thiazin-2-yl)piperidine-4-carboxylate]
- MIC [1]: 0.008 µM (≈ 3.45 ng/mL)
- CC50 [2]: > 10 µM

SMILES: O=C1OCCC1N1CCN(c2nc(=O)c3cc(C(F)(F)F)cc([N+](=O)[O-])c3s2)CC1 (stereo not shown) [Compound 2f, 8-Nitro-2-(4-(2-oxotetrahydrofuran-3-yl)piperazin-1-yl)-6-(tri-fluoromethyl)-4H-benzo[e][1,3]thiazin-4-one]
- MIC [1]: 0.064 µM (≈ 28.4 ng/mL)
- CC50 [2]: > 10 µM

— paper PMC9078972 (RSC Advances, 2018)
